Measured values reported in US5250554A, “Benzimidazole derivatives useful as angiotensin II inhibitors” (Takeda Chemical Industries, Ltd., priority 1989, dated 1993).
Structures can show the parent of a compound that is named as a salt.

Columns and labels:
[1] = tested on: pressor action of A-II; assay: Inhibitory effect on pressor action of A-II (oral drug, i.v. A-II 100 ng/kg); format: in vivo, Jcl:SD rats (9 week old, male); settings: Rattus norvegicus, po, rats, A-II 100 ng/kg i.v.; for inhibition in vivo at 3 mg/kg: 3 mg/kg p.o., read-out: Pressor response to A II (p.o.), 3 mg/kg (percent inhibition); for inhibition in vivo at 30 mg/kg: 30 mg/kg p.o., read-out: Pressor response to A II (p.o.), 30 mg/kg (percent inhibition)
Text: Inhibitory effect of the compound of this invention on pressor action of A-II
Jcl:SD rats (9 week old, male) were used. On the day prior to that of the experiment, these animals were applied with cannulation into the femoral artery and vein under anesthesia with pentobarbital Na. The animals were fasted but allowed free access to drinking water until the experiment was started. On the day of conducting the experiment, the artery cannula was connected with a blood-pressure transducer, and the average blood pressure was recorded by means of polygraph. […] The drugs were orally administered, and then, at each point of the measurement, A-II was administered intravenously, and the pressor action was similarly measured. By comparing the pressor action before and after administration of the drug, the percent inhibition by the drug on A-II-induced pressor action was evaluated.

[2] = biological target: T1, A-II receptor (Bos taurus, UniProt P25104); assay: Inhibition of binding of angiotensin-II to angiotensin receptor (radioreceptor assay, 125I-A-II); parameters: species or system bovine (membrane fraction of bovine adrenal cortex); settings: bovine adrenal cortex membrane, 125I-A-II, 1 h room temperature; for inhibition at 10 µM: 1 × 10^-5 M, read-out: Radioreceptor assay, inhibition of A-II binding, 1 × 10^-5 M; for inhibition at 1 µM: 1 × 10^-6 M, read-out: Radioreceptor assay, inhibition of A-II binding, 1 × 10^-6 M
T1 construct: An A-II receptor was prepared from the membrane fraction of bovine adrenal cortex; from tissue; host or cells: bovine adrenal cortex, membrane fraction
T1 sequence (P25104 1-359): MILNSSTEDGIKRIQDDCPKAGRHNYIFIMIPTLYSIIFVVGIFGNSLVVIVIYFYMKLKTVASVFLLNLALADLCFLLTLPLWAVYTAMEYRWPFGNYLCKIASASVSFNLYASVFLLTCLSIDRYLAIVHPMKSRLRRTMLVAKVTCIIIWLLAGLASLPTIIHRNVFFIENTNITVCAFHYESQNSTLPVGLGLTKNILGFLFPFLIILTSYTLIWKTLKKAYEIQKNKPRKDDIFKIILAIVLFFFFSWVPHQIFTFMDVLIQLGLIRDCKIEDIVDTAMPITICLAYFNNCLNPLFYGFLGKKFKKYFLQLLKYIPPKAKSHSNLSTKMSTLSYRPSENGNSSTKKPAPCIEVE
Description: Inhibition of binding of angiotensin-II to angiotensin receptor
An A-II receptor was prepared from the membrane fraction of bovine adrenal cortex.

CCCCc1nc2ccccc2n1Cc1ccc(-c2ccccc2-c2nnn[nH]2)cc1 [Reference Example 17, 2-Butyl-1-[[2'-(1H-tetrazol-5-yl)biphenyl-4-yl]methyl]benzimidazole, reference compound] was tested, and the inhibition in vivo at 3 mg/kg [1] was < 30%, the inhibition in vivo at 30 mg/kg [1] was < 30% and the inhibition at 10 µM [2] was 87%. It also gave an inhibition at 1 µM [2] of 52%.

With CCCCc1nc2c(C(=O)OC)cccc2n1Cc1ccc(-c2ccccc2-c2nn[nH]n2)cc1 [Reference Example 29, reference compound] the inhibition in vivo at 30 mg/kg [1] was < 30%, the inhibition at 10 µM [2] was 61% and the inhibition at 1 µM [2] was 6%.

With CCCCc1nc2cccc(C(=O)O)c2n1Cc1ccc(-c2ccccc2-c2nnn[nH]2)cc1 [Working Example 1, 2-Butyl-1-[[2'-(1H-tetrazol-5-yl)biphenyl-4-yl]methyl]benzimidazole-7-carboxylic acid] the inhibition in vivo at 3 mg/kg [1] was > 70%, the inhibition in vivo at 30 mg/kg [1] was > 70% and the inhibition at 10 µM [2] was 95%. For the same molecule, the inhibition at 1 µM [2] was 78%.

CCCCc1nc2cccc(C(=O)O)c2n1Cc1ccc(-c2ccccc2-c2nn[nH]n2)cc1 [Working Example 4, 2-Butyl-1-[[2'-(1H-tetrazol-5-Yl)biphenyl-4-yl]methyl]benzimidazole-7-carboxylic acid 2-sodium salt] was tested, and the inhibition in vivo at 3 mg/kg [1] was > 70%, the inhibition in vivo at 30 mg/kg [1] was > 70% and the inhibition at 10 µM [2] was 91%. For the same molecule, the inhibition at 1 µM [2] was 71%.

For CCCc1nc2cccc(C(=O)O)c2n1Cc1ccc(-c2ccccc2-c2nn[nH]n2)cc1 [Working Example 7, 2-Propyl-1-[[2'-(1H-tetrazol-5-yl)bichenyl-4-yl]methyl]benzimidazole-7-carboxylic acid], the inhibition in vivo at 3 mg/kg [1] was > 70%, the inhibition in vivo at 30 mg/kg [1] was > 70% and the inhibition at 10 µM [2] was 95%. The inhibition at 1 µM [2] was 79%.

CCCCc1nc2cc(C)cc(C(=O)OC)c2n1Cc1ccc(-c2ccccc2-c2nn[nH]n2)cc1 [Working Example 9] gave an inhibition in vivo at 3 mg/kg [1] of 50 to 70%, an inhibition at 10 µM [2] of 92% and an inhibition at 1 µM [2] of 45%.

CCCCc1nc2cc(C)cc(C(=O)O)c2n1Cc1ccc(-c2ccccc2-c2nn[nH]n2)cc1 [Working Example 10, 2-Butyl-5-methyl-1-[[2,-(1H-tetrazol-5-yl)biphenyl-4-yl]methyl]benzimidazole-7-carboxylic acid] was tested, and the inhibition in vivo at 3 mg/kg [1] was > 70%, the inhibition in vivo at 30 mg/kg [1] was > 70% and the inhibition at 10 µM [2] was 90%. For the same molecule, the inhibition at 1 µM [2] was 40%.

For CCCCc1nc2cc(Cl)cc(C(=O)OC)c2n1Cc1ccc(-c2ccccc2-c2nnn[nH]2)cc1 [Working Example 12, Methyl 2-butyl-5-chloro-1-[[2'-(1H-tetrazol-5-yl)biphenyl-4-yl]methyl]benzimidazole-7-carboxylate], the inhibition in vivo at 3 mg/kg [1] was 50 to 70%, the inhibition in vivo at 30 mg/kg [1] was > 70% and the inhibition at 10 µM [2] was 91%. For the same molecule, the inhibition at 1 µM [2] was 65%.

With CCCCc1nc2cccc(C(=O)OCC)c2n1Cc1ccc(-c2ccccc2-c2nnn[nH]2)cc1 [Working Example 14, Ethyl 2-butyl-1-[[2'-(1H-tetrazol-5-yl)biphenyl-4-yl]methyl]benzimidazole-7-carboxylate] the inhibition in vivo at 3 mg/kg [1] was 50 to 70%, the inhibition in vivo at 30 mg/kg [1] was > 70% and the inhibition at 10 µM [2] was 82%. The inhibition at 1 µM [2] was 50%.

With CCCCc1nc2cccc(CO)c2n1Cc1ccc(-c2ccccc2-c2nnn[nH]2)cc1 [Working Example 16, 2-Butyl-7-hydroxymethyl-1-[[2'-(1H-tetrazol-5-yl)biphenyl-4-yl]methyl]benzimidazole] the inhibition in vivo at 30 mg/kg [1] was > 70%, the inhibition at 10 µM [2] was 90% and the inhibition at 1 µM [2] was 67%.

For CCCCc1nc2cccc(CC(=O)OCC)c2n1Cc1ccc(-c2ccccc2-c2nn[nH]n2)cc1 [Working Example 17, Ethyl [[2-butyl-1-[2'-(1H-tetrazol-5-Yl)biphenyl-4-yl]methyl]benzimidazol-7-yl]acetate], the inhibition in vivo at 3 mg/kg [1] was 30 to 50%, the inhibition at 10 µM [2] was 93% and the inhibition at 1 µM [2] was 75%.

CCCCc1nc2ccccc2n1Cc1ccc(-c2ccccc2C(=O)O)cc1 [compound 26, 2-[4-(2-Butylbenzimidazol-1-yl)methylphenyl]benzoic acid, reference compound] was tested, and the inhibition at 10 µM [2] was 87% and the inhibition at 1 µM [2] was 48%.
